Data: patent US9540384B2, “Pyrrolidino heterocycles” (Hoffmann-La Roche Inc., priority 2012, dated 2017)

Molecular target: human PDE10A full length (Homo sapiens (Human), UniProt Q9Y233)
Assay: human PDE10A full length Scintillation Proximity Assay (SPA)
Format: biochemical
Conditions: PDE10A enzyme, 50 nM cGMP + 50 nM [3H]-cGMP, 20 minutes at room temperature
Method: The following test was carried out in order to determine the activity of the compounds of the present invention. PDE10 activity of the compounds of the present invention was determined using a Scintillation Proximity Assay (SPA)-based method similar to the one previously described (Fawcett, L. et al., Proc Natl Acad Sci USA (2000) 97(7):3702-3707).
The human PDE10A full length assay was performed in 96-well micro titer plates. The reaction mixture of 50 μl contained 20 mM HEPES pH=7.5/10 mM MgCl2/0.05 mg/ml BSA (Sigma cat. #A-7906), 50 nM cGMP (Sigma, cat. #G6129) and 50 nM [3H]-cGMP (GE Healthcare, cat. #TRK392 S.A. 13.2 Ci/mmol), 3.75 ng/well PDE10A enzyme (Enzo Life Science, Lausen, Switzerland cat #SE-534) with or without a specific test compound. A range of concentrations of the potential inhibitor was used to generate data for calculating the concentration of inhibitor resulting in 50% of the effect (e.g. IC50, the concentration of the competitor inhibiting PDE10A activity by 50%). Non-specific activity was tested without the enzyme. The reaction was initiated by the addition of the substrate solution (cGMP and [3H]-cGMP) and allowed to progress for 20 minutes at room temperature. The reaction was terminated by adding 25 μl of YSi-SPA scintillation beads (GE Healthcare, cat. #RPNQ0150) in 18 mM zinc sulphate solution (stop reagent). After 1 h under shaking, the plate was centrifuged one minute at 170 g to allow beads to settle. Afterwards, radioactive counts were measured on a Perkin Elmer TopCount Scintillation plate reader.

human PDE10A full length, sequence (Q9Y233 other isoform, or with tags, fused parts or gaps): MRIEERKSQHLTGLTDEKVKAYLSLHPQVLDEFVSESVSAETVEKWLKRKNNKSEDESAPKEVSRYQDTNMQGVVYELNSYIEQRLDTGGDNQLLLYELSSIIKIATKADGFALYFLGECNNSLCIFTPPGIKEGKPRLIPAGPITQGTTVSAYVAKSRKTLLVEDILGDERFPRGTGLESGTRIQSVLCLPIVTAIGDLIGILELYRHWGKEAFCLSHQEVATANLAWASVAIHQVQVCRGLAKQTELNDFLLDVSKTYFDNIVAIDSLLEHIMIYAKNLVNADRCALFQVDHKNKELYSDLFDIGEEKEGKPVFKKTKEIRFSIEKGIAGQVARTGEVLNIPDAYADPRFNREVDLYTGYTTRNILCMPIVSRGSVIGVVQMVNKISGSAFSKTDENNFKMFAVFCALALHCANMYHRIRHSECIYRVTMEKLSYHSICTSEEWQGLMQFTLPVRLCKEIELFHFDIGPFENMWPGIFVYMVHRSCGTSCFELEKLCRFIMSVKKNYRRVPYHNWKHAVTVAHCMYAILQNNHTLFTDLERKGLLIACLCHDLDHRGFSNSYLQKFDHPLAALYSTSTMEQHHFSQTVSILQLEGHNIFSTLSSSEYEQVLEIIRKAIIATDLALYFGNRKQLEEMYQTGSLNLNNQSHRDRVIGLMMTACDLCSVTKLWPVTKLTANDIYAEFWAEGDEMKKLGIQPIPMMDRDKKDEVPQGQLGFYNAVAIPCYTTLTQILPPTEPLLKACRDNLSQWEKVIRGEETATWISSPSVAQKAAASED

Structure (SMILES)	IC50
Cc1nc2ccccc2nc1OCc1cccc(N2CCCCC2)n1 [Example 15, 2-Methyl-3-((6-(piperidin-1-yl)pyridin-2-yl)methoxy)quinoxaline]	1680 nM
CN(C)c1nc(/C=C/c2cccc(N(C)CCO)n2)nc2ccc(Cl)cc12 [Example 39, (E)-2-((6-(2-(6-Chloro-4-(dimethylamino)quinazolin-2-yl)vinyl)pyridin-2-yl)(methyl)amino)ethanol]	240 nM
CN(C)c1nc(CCc2cccc(N3CCC(CO)C3)n2)nc2ccc(Cl)cc12 (stereo not shown) [Example 33, (1-(6-(2-(6-Chloro-4-(dimethylamino)quinazolin-2-yl)ethyl)pyridin-2-yl)pyrrolidin-3-yl)methanol]	150 nM
CNc1cccc(CCc2nc(-c3ccccc3)cn2C)n1 [Example 4, Methyl-{6-[2-(1-methyl-4-phenyl-1H-imidazol-2-yl)-ethyl]-pyridin-2-yl}-amine]	4060 nM
CN(C)c1nc(CCc2cccc(N(C)CCO)n2)nc2ccc(Cl)cc12 [Example 40, 2-((6-(2-(6-Chloro-4-(dimethylamino)quinazolin-2-yl)ethyl)pyridin-2-yl)(methyl)amino)ethanol]	2160 nM
Cc1oc(-c2ccccc2)nc1CCc1cccc(N2CCCC2)n1 [Example 12, 2-[2-(5-Methyl-2-phenyl-oxazol-4-yl)-ethyl]-6-pyrrolidin-1-yl-pyridine]	2000 nM
CC1CCCN1c1cccc(/C=C/c2nc(N(C)C)c3cc(Cl)ccc3n2)n1 (stereo not shown) [Example 35, (E)-6-Chloro-N,N-dimethyl-2-(2-(6-(2-methylpyrrolidin-1-yl)pyridin-2-yl)vinyl)quinazolin-4-amine]	27 nM
Cn1cc(-c2ccccc2)nc1CCc1cccc(N2CCOCC2)n1 [Example 7, 4-(6-(2-(1-Methyl-4-phenyl-1H-imidazol-2-yl)ethyl)pyridin-2-yl)morpholine]	3140 nM
CN(C)c1nc(OCc2cccc(N3CCCC3)n2)nc2ccc(Cl)cc12 [Example 17, 6-Chloro-N,N-dimethyl-2-((6-(pyrrolidin-1-yl)pyridin-2-yl)methoxy)quinazolin-4-amine]	7 nM
COc1c(C)cnc(/C=C/c2cccc(N3CCCC3)n2)c1C [Example 3, (E)-4-methoxy-3,5-dimethyl-2-(2-(6-(pyrrolidin-1-yl)pyridin-2-yl)vinyl)pyridine]	790 nM
c1cc(CCc2nc(N3CCOCC3)c3ccccc3n2)nc(N2CCCC2)c1 [Example 21, 4-(2-(2-(6-(Pyrrolidin-1-yl)pyridin-2-yl)ethyl)quinazolin-4-yl)morpholine]	46 nM
c1cc(COc2nc(N3CCOCC3)c3ccccc3n2)nc(N2CCCC2)c1 [Example 16, 4-(2-((6-(Pyrrolidin-1-yl)pyridin-2-yl)methoxy)quinazolin-4-yl)morpholine]	50 nM

Second part, the compound after the results:

IC50	Structure (SMILES)
540 nM	CCc1nc2ccc(OCc3cccc(N4CCCC4)n3)nn2c1C [Example 52, 2-Ethyl-3-methyl-6-((6-(pyrrolidin-1-yl)pyridin-2-yl)methoxy)imidazo[1,2-b]pyridazine]
31 nM	Cc1cc(C)n2nc(/C=C/c3cccc(N4CCCC4)n3)nc2n1 [Example 47, (E)-5,7-Dimethyl-2-(2-(6-(pyrrolidin-1-yl)pyridin-2-yl)vinyl)[1,2,4]triazolo[1,5-a]pyrimidine]
300 nM	Cc1cc(C)n2nc(CCc3cncc(N4CCCC4)n3)nc2n1 [Example 46, 5,7-Dimethyl-2-(2-(6-(pyrrolidin-1-yl)pyrazin-2-yl)ethyl)-[1,2,4]triazolo-[1,5-a]pyrimidine]
750 nM	CN(C)c1cccc(/C=C/c2nc(N(C)C)c3cc(Cl)ccc3n2)n1 [Example 41, (E)-6-Chloro-2-(2-(6-(dimethylamino)pyridin-2-yl)vinyl)-N,N-dimethylquinazolin-4-amine]
160 nM	Cc1nc2ccc(OCc3cccc(N4CCCC4)n3)nn2c1C [Example 44, 2,3-Dimethyl-6-((6-(pyrrolidin-1-yl)pyridin-2-yl)methoxy)imidazo[1,2-b]pyridazine]
260 nM	Cc1cn2nc(OCc3cccc(N4CCCC4)n3)ccc2n1 [Example 54, 2-Methyl-6-((6-(pyrrolidin-1-yl)pyridin-2-yl)methoxy)imidazo[1,2-b]pyridazine]
600 nM	c1cc(COc2ccc3nc(C4CC4)cn3n2)nc(N2CCCC2)c1 [Example 55, 2-Cyclopropyl-6-((6-(pyrrolidin-1-yl)pyridin-2-yl)methoxy)imidazo[1,2-b]pyridazine]
